In US20220339143A1, “TAK-925 FOR USE IN TREATING NARCOLEPSY” (Takeda Pharmaceutical Company Limited, priority 2019, published 2022):
Read-outs that look alike come from different tables or passages of the source.

Experiment: Single dose PK in healthy subjects (Cohorts 1, 2, S1 and S2), plasma
Format: in vivo, human
Conditions: human, plasma, iv; for concentration at 3 h after end of infusion: 3 hr After End of Infusions; for concentration at 4 h after end of infusion: 4 hr After End of Infusions; for concentration at 6 h after end of infusion: 6 hr After End of Infusions; for concentration at 10 h after end of infusion: 10 hr After End of Infusions; for concentration at 15 h after end of infusion: 15 hr After End of Infusions
Description: This study investigates (i) the safety and tolerability of Compound A (methyl (2R,3S)-3-((methylsulfonyl)amino)-2-(((cis-4-phenylcyclohexyl)oxy)methyl)piperidine-1-carboxylate) when a single dose given as a 9 hour continuous IV infusion is administered to healthy adults, healthy elderly subjects and patients with narcolepsy type 1 (NT1); (ii) the pharmacokinetics of Compound A when a single dose given as a 9 hour continuous IV infusion is administered to healthy adults, healthy elderly subjects and patients with narcolepsy type 1; and (iii) the pharmacodynamics (PD) effects of Compound A, primarily by evaluation of the sleep latency on MWT when a single dose given as a 9 hour continuous IV infusion is administered to patients with narcolepsy type 1.
Pharmacokinetics: Concentrations of Compound A in plasma, and CSF, and pharmacokinetics parameters.
On average, the time to reach the plateau appeared to be approximately 3 to 4 hours after the start of infusion. […] After switching off the IV infusion, Compound A plasma concentrations declined rapidly and in a biphasic manner with a mean terminal disposition phase t1/2z ranging approximately from 3.4 to 5.1 hours across all doses. […] Table 5 provides a summary of plasma concentrations of Compound A after a single IV infusion in healthy subjects. Table 6 provides a summary of pharmacokinetic parameters of Compound A after a single IV infusion in healthy subjects.

[1] = 240 mg, 240 mg single IV infusion, read-out: Plasma Concentration of Cmpd A, Maximum
[2] = 240 mg, 240 mg single IV infusion, read-out: Plasma Concentration of Cmpd A, Median
[3] = 240 mg, 240 mg single IV infusion, read-out: Plasma Concentration of Cmpd A, Q3
[4] = 240 mg, 240 mg single IV infusion, read-out: Plasma Concentration of Cmpd A, Q1

COC(=O)N1CCC[C@H](NS(C)(=O)=O)[C@@H]1CO[C@H]1CC[C@@H](c2ccccc2)CC1 [Compound A, methyl (2R,3S)-3-((methylsulfonyl)amino)-2-(((cis-4-phenylcyclohexyl)oxy)methyl)piperidine-1-carboxylate]
Cmax (134.4 mg, 134.4 mg single IV infusion, healthy subjects, read-out: Cmax Geo Mean): 305 ng/mL
Cmax (134.4 mg, 134.4 mg single IV infusion, healthy subjects, read-out: Cmax Mean): 308 ng/mL
Cmax (134.4 mg, 134.4 mg single IV infusion, healthy subjects, read-out: Cmax Median): 314 ng/mL
Vd (134.4 mg, 134.4 mg single IV infusion, healthy subjects, read-out: Vss Mean): 88.5 L
Vd (134.4 mg, 134.4 mg single IV infusion, healthy subjects, read-out: Vss Median): 87 L
Vd (134.4 mg, 134.4 mg single IV infusion, healthy subjects, read-out: Vz Mean): 285 L
Vd (134.4 mg, 134.4 mg single IV infusion, healthy subjects, read-out: Vz Median): 276 L
Tmax (134.4 mg, 134.4 mg single IV infusion, healthy subjects, read-out: tmax Mean): 6.33 h
Tmax (134.4 mg, 134.4 mg single IV infusion, healthy subjects, read-out: tmax Median): 6.5 h
AUC (180 mg, 180 mg single IV infusion, healthy subjects, read-out: AUC24 Geo Mean): 2990 ng·h/mL
AUC (180 mg, 180 mg single IV infusion, healthy subjects, read-out: AUC24 Mean): 3000 ng·h/mL
AUC (180 mg, 180 mg single IV infusion, healthy subjects, read-out: AUC24 Median): 3040 ng·h/mL
AUC(0-inf) (180 mg, 180 mg single IV infusion, healthy subjects, read-out: AUCinf Geo Mean): 3010 ng·h/mL
AUC(0-inf) (180 mg, 180 mg single IV infusion, healthy subjects, read-out: AUCinf Mean): 3020 ng·h/mL
AUC(0-inf) (180 mg, 180 mg single IV infusion, healthy subjects, read-out: AUCinf Median): 3050 ng·h/mL
AUC(0-t) (180 mg, 180 mg single IV infusion, healthy subjects, read-out: AUClast Geo Mean): 2990 ng·h/mL
AUC(0-t) (180 mg, 180 mg single IV infusion, healthy subjects, read-out: AUClast Mean): 3000 ng·h/mL
AUC(0-t) (180 mg, 180 mg single IV infusion, healthy subjects, read-out: AUClast Median): 3040 ng·h/mL
clearance (180 mg, 180 mg single IV infusion, healthy subjects, read-out: CL Mean (converted)): 997 mL/min
clearance (180 mg, 180 mg single IV infusion, healthy subjects, read-out: CL Median (converted)): 985 mL/min
concentration at 9 h (180 mg, 180 mg single IV infusion, healthy subjects, read-out: Ceoi Geo Mean): 324 ng/mL
concentration at 9 h (180 mg, 180 mg single IV infusion, healthy subjects, read-out: Ceoi Mean): 325 ng/mL
concentration at 9 h (180 mg, 180 mg single IV infusion, healthy subjects, read-out: Ceoi Median): 316 ng/mL
Cmax (180 mg, 180 mg single IV infusion, healthy subjects, read-out: Cmax Geo Mean): 344 ng/mL
Cmax (180 mg, 180 mg single IV infusion, healthy subjects, read-out: Cmax Mean): 345 ng/mL
Cmax (180 mg, 180 mg single IV infusion, healthy subjects, read-out: Cmax Median): 358 ng/mL
Vd (180 mg, 180 mg single IV infusion, healthy subjects, read-out: Vss Mean): 90.8 L
Vd (180 mg, 180 mg single IV infusion, healthy subjects, read-out: Vss Median): 81.5 L
Vd (180 mg, 180 mg single IV infusion, healthy subjects, read-out: Vz Mean): 291 L
Vd (180 mg, 180 mg single IV infusion, healthy subjects, read-out: Vz Median): 268 L
Tmax (180 mg, 180 mg single IV infusion, healthy subjects, read-out: tmax Mean): 6.33 h
Tmax (180 mg, 180 mg single IV infusion, healthy subjects, read-out: tmax Median): 6.5 h
AUC (240 mg, 240 mg single IV infusion, healthy subjects, read-out: AUC24 Geo Mean): 4540 ng·h/mL
AUC (240 mg, 240 mg single IV infusion, healthy subjects, read-out: AUC24 Mean): 4580 ng·h/mL
AUC (240 mg, 240 mg single IV infusion, healthy subjects, read-out: AUC24 Median): 4400 ng·h/mL
AUC(0-inf) (240 mg, 240 mg single IV infusion, healthy subjects, read-out: AUCinf Geo Mean): 4580 ng·h/mL
AUC(0-inf) (240 mg, 240 mg single IV infusion, healthy subjects, read-out: AUCinf Mean): 4630 ng·h/mL
AUC(0-inf) (240 mg, 240 mg single IV infusion, healthy subjects, read-out: AUCinf Median): 4430 ng·h/mL
AUC(0-t) (240 mg, 240 mg single IV infusion, healthy subjects, read-out: AUClast Geo Mean): 4540 ng·h/mL
AUC(0-t) (240 mg, 240 mg single IV infusion, healthy subjects, read-out: AUClast Mean): 4580 ng·h/mL
AUC(0-t) (240 mg, 240 mg single IV infusion, healthy subjects, read-out: AUClast Median): 4400 ng·h/mL
clearance (240 mg, 240 mg single IV infusion, healthy subjects, read-out: CL Mean (converted)): 880 mL/min
clearance (240 mg, 240 mg single IV infusion, healthy subjects, read-out: CL Median (converted)): 906 mL/min
concentration at 9 h (240 mg, 240 mg single IV infusion, healthy subjects, read-out: Ceoi Geo Mean): 493 ng/mL
concentration at 9 h (240 mg, 240 mg single IV infusion, healthy subjects, read-out: Ceoi Mean): 497 ng/mL
concentration at 9 h (240 mg, 240 mg single IV infusion, healthy subjects, read-out: Ceoi Median): 481 ng/mL
Cmax (240 mg, 240 mg single IV infusion, healthy subjects, read-out: Cmax Geo Mean): 506 ng/mL
Cmax (240 mg, 240 mg single IV infusion, healthy subjects, read-out: Cmax Mean): 512 ng/mL
Cmax (240 mg, 240 mg single IV infusion, healthy subjects, read-out: Cmax Median): 483 ng/mL
Vd (240 mg, 240 mg single IV infusion, healthy subjects, read-out: Vss Mean): 97.5 L
Vd (240 mg, 240 mg single IV infusion, healthy subjects, read-out: Vz Mean): 313 L
Vd (240 mg, 240 mg single IV infusion, healthy subjects, read-out: Vz Median): 293 L
Tmax (240 mg, 240 mg single IV infusion, healthy subjects, read-out: tmax Mean): 5.33 h
Tmax (240 mg, 240 mg single IV infusion, healthy subjects, read-out: tmax Median): 4 h
concentration at 0.5 h (240 mg, 240 mg single IV infusion, 0.5 hr, read-out: Plasma Concentration of Cmpd A, Maximum): 400 ng/mL
concentration at 0.5 hr (240 mg, 240 mg single IV infusion, 0.5 hr, read-out: Plasma Concentration of Cmpd A, Median): 264 ng/mL
concentration at 0.5 hr (240 mg, 240 mg single IV infusion, 0.5 hr, read-out: Plasma Concentration of Cmpd A, Q3): 368 ng/mL
concentration at 1 h (240 mg, 240 mg single IV infusion, 1 hr, read-out: Plasma Concentration of Cmpd A, Maximum): 465 ng/mL
concentration at 1 hr (240 mg, 240 mg single IV infusion, 1 hr, read-out: Plasma Concentration of Cmpd A, Median): 318 ng/mL
concentration at 1 hr (240 mg, 240 mg single IV infusion, 1 hr, read-out: Plasma Concentration of Cmpd A, Q3): 418 ng/mL
concentration at 1.5 h (240 mg, 240 mg single IV infusion, 1.5 hr, read-out: Plasma Concentration of Cmpd A, Maximum): 480 ng/mL
concentration at 1.5 hr (240 mg, 240 mg single IV infusion, 1.5 hr, read-out: Plasma Concentration of Cmpd A, Median): 370 ng/mL
concentration at 1.5 hr (240 mg, 240 mg single IV infusion, 1.5 hr, read-out: Plasma Concentration of Cmpd A, Q3): 463 ng/mL
concentration at 2 h (240 mg, 240 mg single IV infusion, 2 hr, read-out: Plasma Concentration of Cmpd A, Maximum): 482 ng/mL
concentration at 2 hr (240 mg, 240 mg single IV infusion, 2 hr, read-out: Plasma Concentration of Cmpd A, Median): 399 ng/mL
concentration at 2 hr (240 mg, 240 mg single IV infusion, 2 hr, read-out: Plasma Concentration of Cmpd A, Q3): 452 ng/mL
concentration at 3 h after end of infusion [1]: 91 ng/mL
concentration at 3 h after end of infusion [2]: 75.5 ng/mL
concentration at 3 h after end of infusion [3]: 87.1 ng/mL
concentration at 3 h (240 mg, 240 mg single IV infusion, 3 hr, read-out: Plasma Concentration of Cmpd A, Maximum): 582 ng/mL
concentration at 3 hr (240 mg, 240 mg single IV infusion, 3 hr, read-out: Plasma Concentration of Cmpd A, Median): 422 ng/mL
concentration at 3 h (240 mg, 240 mg single IV infusion, 3 hr, read-out: Plasma Concentration of Cmpd A, Q3): 515 ng/mL
concentration at 4 h after end of infusion [1]: 65.1 ng/mL
concentration at 4 h after end of infusion [2]: 56.5 ng/mL
concentration at 4 h after end of infusion [4]: 53.1 ng/mL
concentration at 4 h after end of infusion [3]: 62.7 ng/mL
concentration at 4 h (240 mg, 240 mg single IV infusion, 4 hr, read-out: Plasma Concentration of Cmpd A, Maximum): 650 ng/mL
concentration at 4 hr (240 mg, 240 mg single IV infusion, 4 hr, read-out: Plasma Concentration of Cmpd A, Median): 459 ng/mL
concentration at 4 h (240 mg, 240 mg single IV infusion, 4 hr, read-out: Plasma Concentration of Cmpd A, Q3): 579 ng/mL
concentration at 6 h after end of infusion [1]: 38.2 ng/mL
concentration at 6 h after end of infusion [2]: 28.4 ng/mL
concentration at 6 h after end of infusion [4]: 23 ng/mL
concentration at 6 h after end of infusion [3]: 36.9 ng/mL
concentration at 6 h (240 mg, 240 mg single IV infusion, 6 hr, read-out: Plasma Concentration of Cmpd A, Maximum): 532 ng/mL
concentration at 6 hr (240 mg, 240 mg single IV infusion, 6 hr, read-out: Plasma Concentration of Cmpd A, Median): 410 ng/mL
concentration at 6 h (240 mg, 240 mg single IV infusion, 6 hr, read-out: Plasma Concentration of Cmpd A, Q3): 514 ng/mL
concentration at 8 h (240 mg, 240 mg single IV infusion, 8 hr, read-out: Plasma Concentration of Cmpd A, Maximum): 562 ng/mL
concentration at 8 hr (240 mg, 240 mg single IV infusion, 8 hr, read-out: Plasma Concentration of Cmpd A, Median): 470 ng/mL
concentration at 8 hr (240 mg, 240 mg single IV infusion, 8 hr, read-out: Plasma Concentration of Cmpd A, Q3): 542 ng/mL
concentration at 9 h (240 mg, 240 mg single IV infusion, 9 hr, read-out: Plasma Concentration of Cmpd A, Maximum): 613 ng/mL
concentration at 9 hr (240 mg, 240 mg single IV infusion, 9 hr, read-out: Plasma Concentration of Cmpd A, Median): 481 ng/mL
concentration at 9 hr (240 mg, 240 mg single IV infusion, 9 hr, read-out: Plasma Concentration of Cmpd A, Q3): 539 ng/mL
concentration at 10 h after end of infusion [1]: 18.6 ng/mL
concentration at 10 h after end of infusion [2]: 16.6 ng/mL
concentration at 10 h after end of infusion [4]: 10.3 ng/mL
concentration at 10 h after end of infusion [3]: 17.5 ng/mL
concentration at 15 h after end of infusion [1]: 9.71 ng/mL
concentration at 15 h after end of infusion [2]: 7.64 ng/mL
concentration at 15 h after end of infusion [4]: 3.39 ng/mL
concentration at 15 h after end of infusion [3]: 8.82 ng/mL
clearance (IV administration, healthy subjects, read-out: mean estimates of plasma clearance): 717 to 1000 mL/min
